Reference: a melting point compilation (Tetko et al.; mined from patent text by program, amines drawn as free bases though some values may be those of a salt)

SMILES	melting point [°C]
O=C(O)COc1c(-c2cccc(Cl)c2)cc(C(=O)NCCCCCCc2ccccc2)cc1-c1cccc(Cl)c1	178 to 181
Cc1c2c(nn1-c1ccccc1)c(Cl)nc1ccccc12	208 to 209
CCCCCCC[C@H]1CC[C@H](COc2ccc(O)cc2)CC1	107 to 108
COc1ccc(-c2c(Cl)c(CNS(=O)(=O)c3ccccc3)nc3sc4c(c23)CCN(Cc2ccccc2)C4)cc1OC	153 to 154
CCCCN(CCCC)C(=O)c1c(C)n(CCc2ccccc2)c2ccc(O)c(CN3CCCCC3)c12	105 to 107
Brc1c(-c2ccccc2)n[nH]c1Sc1ccccc1	121 to 122
CN(C)c1nc2cc(NC(=O)c3c(C(=O)N4CCC4)cnn3C)ccn2n1	240 to 241
CCCCCCN(C=CC=C(C#N)C#N)CCCCCC	112 to 113
Cc1cccc2c(CCN3CCCCC3)c(-c3ccccc3)[nH]c12	159 to 161
O=C(O)/C=C/c1cccc(-c2nc(=O)c3ccccc3s2)n1	116
COC(=O)C(=O)c1cc2c3c(c1)CCN3CCC2	102 to 105
Cc1cc(Br)cnc1CCCCN=C(NC#N)NCc1ccccc1	140 to 141
COc1cccc2c(CCN(C3CCC3)C3COc4c(F)ccc(C(N)=O)c4C3)coc12 (centres undefined)	135 to 145
COc1ccc(C2=NN(C3CCN(C(=O)N4CCOCC4)CC3)C(=O)[C@@H]3CC=CC[C@H]23)cc1OC	184 to 185
COc1ccc(-c2nc(SC)[nH]c2-c2ccc(OC)cc2)cc1	157 to 158
CN(C)C(=O)c1ncn2c1CC(=O)N(c1ccccc1)c1cc(Cl)ccc1-2	255 to 257
CCOC(=O)c1cn(-c2ccc(F)cc2F)c2nc(N3CCN(C(C)=O)CC3)c(F)cc2c1=O	219 to 220
CCOC(=O)C(=O)CC(=O)c1cn(CCCCc2ccccc2)c2ccccc2c1=O	88 to 90
Nc1nc(NCCC23CC4CC(CC(C4)C2)C3)nc2c1ncn2C1OC(CO)C(O)C1O (centres undefined)	145 to 147
CCC(C)(CC)c1cc(NC(=O)c2c(OC)cccc2OC)sn1	243 to 244
CCCCCC(=O)c1c(CBr)n(C(=O)OC)c(=O)n1C(=O)OC	71 to 73
COc1ccccc1C=Cc1ccccc1	69 to 70
CCCCCCC(C)(C)c1cc(OC)c(C2=C[C@@]3(C)CC[C@@H]2C3(C)C)c(OC)c1	32 to 33
Cc1cc(CC(Cc2cc(C)c(O)c(C(C)(C)C)c2)(C(=O)OC2CC(C)(C)N(C)C(C)(C)C2)C(=O)OC2CC(C)(C)N(C)C(C)(C)C2)cc(C(C)(C)C)c1O	150
CN(C)S(=O)(=O)c1cc(-c2csc(=Nc3ccc(Cl)cc3)n2C)ccc1Cl	184

SMILES	melting point [°C]
CS(=O)(=O)Nc1cc2oc(C(=O)O)cc(=O)c2cc1Oc1ccccc1	> 250
CC(=O)c1c(C)c2cnc(N)nc2n(C2CCCC2)c1=O	182 to 186
NC(=O)N(O)CCOc1ccc2c(c1)CCN(Cc1ccc(-c3ccc(F)cc3)cc1)C2=O	171 to 172
Cn1cc(-c2nc3c(N[C@H]4[C@@H](C(N)=O)[C@@H]5C=C[C@H]4C5)ccnc3[nH]2)cn1	236 to 238
CC(CCC(F)(F)C(C)(C)O)C1CCC2C3CC=C4CC(O)CC(O)C4(C)C3CCC12C (centres undefined)	177 to 179
CC(C=O)Oc1ccc(OCc2ccccc2)cc1 (centres undefined)	50 to 51
CCOC(=O)c1ccc(-c2ccc(-c3ccc(OC)cc3)c(-c3ccc4c(c3)C(C)(C)CCC4(C)C)c2)cc1	112 to 115
CCOc1cc2c(cc1O)C(=O)CC(C)(C)O2	129 to 130
CCOC(=O)/C=C(/c1ccc(OC)cc1)c1cccc(C#N)c1	105 to 106
CC#Cc1ccc([C@H]2CC[C@H](CCCCC)CC2)nn1	103 to 104
CCC1(CC)CN(C(C)(C)C)C(=O)C(C)(CC)N1OC(C)c1ccccc1 (centres undefined)	76 to 79
COc1nc(Nc2ccc(C)cc2[N+](=O)[O-])nc(OC)n1	189 to 191
Clc1cccc(Oc2ccc(OCc3ccc(Br)s3)cc2)n1	78 to 80
NCC1Cc2cc(C(F)(F)F)cc(-c3cc(F)ccc3F)c2O1 (centres undefined)	> 250
O=c1nc(-c2cccc(CSc3ccccn3)n2)sc2ccccc12	151 to 152
CN1CCN(CCC(=O)Nc2ccc3c(c2)C(=O)c2cc(NC(=O)CCN4CCN(C)CC4)ccc2C3=O)CC1	284
CC[C@@H](C)[C@@H]1NC(=O)OC1(c1ccccc1)c1ccccc1	221 to 223
CCOC(=O)Cn1c(CC(=O)O)cc2c(Cl)c(Cl)ccc21	205 to 207
Cc1cc(C(C)(O)c2scnc2C)c(C)o1 (centres undefined)	100 to 102
O=C(CCc1ccccc1)N[C@H](Cc1ccc(C(F)(F)F)cc1)[C@@H](O)c1cccc(Oc2ccccc2)c1 (racemic)	134 to 135
c1cc(-c2cnn3cc(-c4ccc(OCCN5CCCCC5)cc4)cnc23)cs1	141 to 143
Brc1cn2ccnc2c(N2CCOCC2)n1	191
CCOC(=O)C=Cc1ccc(OCc2nc(-c3ccccc3)oc2C)cc1	145 to 146
c1ccc2c(c1)CNc1cccnc1O2	172 to 174
Nc1ncnc2c1ncn2Cc1oc2ccc(Br)cc2c(=O)c1-c1ccccc1	207 to 209

SMILES	melting point [°C]
NC(=O)c1[nH]c2ccc(Cl)cc2c1S(=O)(=O)c1ccccc1	253 to 254
COc1ccc(-c2nc3c(C(=O)NC4CN5CCC4CC5)cccc3o2)cc1 (centres undefined)	108 to 109
CCCn1c2c(ccc1=O)C(NCCc1ccc(Cl)c(Cl)c1)CCC2 (centres undefined)	105 to 107
COC(=O)COC(=O)C(Cl)=Cc1cc(-n2ncc(C(F)(F)F)c(C)c2=O)c(F)cc1Cl	88 to 91
COC(=O)c1snnc1C1CC1	47
Cc1c(Cc2ccccc2)c(=O)n(Cc2ccccc2)c2cc(OCC(=O)NO)cc(OCC(=O)NO)c12	121 to 127
NNC(=O)c1cccc2nnsc12	270 to 272
CC(C)(C)OC(=O)C12CC3CC(C1)CC(C(=O)OC(C)(C)C)(C3)C2	65 to 66
O=C(O)CCc1cc(-c2ccccc2)nn1Cc1ccc(Cl)cc1Cl	160 to 161
CCC1=C(C)CN(C(=O)NCC2CCOc3cc(OC)c(S(=O)(=O)NC(=S)NC(C)C)cc32)C1=O (centres undefined)	153
COc1ccc(OCCCCCCCc2cc(C)no2)c(Cl)c1	45 to 46
COc1nc(C)cnc1NS(=O)(=O)c1cccnc1-c1ccc(OCCO)cc1	180 to 182
C/C(=C\C=O)c1ccc(OCc2nc(-c3ccccc3)oc2C)cc1	94 to 95
O=C(O)C(O)c1ccc2oc([N+](=O)[O-])c(-c3ccccc3)c2c1 (centres undefined)	158 to 161
COCOc1ccccc1COc1cc2c(cc1-c1cc(C=CC(=O)O)ccc1OC)C(C)(C)CCC2(C)C	159 to 161
Cn1c(-c2ccncc2)n[nH]c1=O	249 to 251
CCOc1ccc(-c2ccc(C3(O)CN4CCC3CC4)cc2)cc1 (centres undefined)	199 to 200
Cc1noc(NS(=O)(=O)c2cc(Cl)c(Cl)cc2Cl)c1Br	179 to 182
CS(=O)(=O)c1cc(CCC(=O)O)nc(-c2nc(=O)c3ccc(F)cc3s2)c1	236
CC(C)n1nc(-c2cc(C(N)=O)c(=O)[nH]c2-c2ccccc2)ccc1=O	> 250
CC12CC(N3CCC(=O)CC3)C(O)CC1CCC1C2CCC2(C)C(O)C(N3CCCC3)CC12 (centres undefined)	136 to 138
CC(=O)OCCn1c([N+](=O)[O-])cnc1C	143 to 145
CCCCc1oc2ccccc2c1-c1ncc(-c2ccc3cc(OCc4ccc(C(=O)O)cc4)ccc3c2)o1	251 to 254
CCOCC1=NNC(=O)N(N=Cc2cccnc2)C1	156 to 158
COC(=O)c1ccc(C(=O)Nc2cc3c4c(c2)CCCC4(C)CCC3)cc1	217 to 218

SMILES	melting point [°C]
COc1ccc(OC2COc3ccc(OCc4ccccc4)cc3C2=O)cc1 (centres undefined)	98 to 100
COc1ccc(C2Sc3ccccc3N(CCN(C)C)C(=O)C2OC(=O)c2ccccc2[N+](=O)[O-])cc1 (centres undefined)	161 to 162
C[C@H](C#Cc1scc(Cc2ccc(F)cc2)c1Cc1ccc(F)cc1)N(O)C(N)=O	128 to 130
O=C(Nc1cccc2ccccc12)OCCCC(O)c1ccccc1 (centres undefined)	92
COc1ccc(-c2cn(C)cc(-c3ccccc3)c2=O)cc1	165
CNc1nc(-c2cccc(NC(=O)c3ccc(OC)cc3)c2)c2cc(OC)c(OC)cc2n1	219 to 221
CCCCCCCCCCCCCCCCCCN(OCCCC)C(CCCCCCCCCCCCCCCCC)P(=O)(OCCCC)OCCCC (centres undefined)	38 to 40
CN1CCN(C2CC3(C)C(CCC4C3CCC3(C)C(O)C(N5CCCCC5)CC43)CC2O)CC1 (centres undefined)	230 to 234
C=CCC1(C(O)C(c2cccc(Cl)c2)n2ccnc2)CC2C=CC1C2 (centres undefined)	134 to 135
COc1c(OC2CCC3(CC2)OCC(C)(C)CO3)ccnc1C	90
C#CCSC(=S)N(C)C	57 to 59
CCC(=O)Nc1cc(-n2cccn2)nc(-c2ccc(Cl)o2)n1	189 to 190
CN1CCN(c2nn(S(=O)(=O)c3ccccc3)c3ccc(Br)cc23)CC1	135 to 137
CC(C)C1NC(NC(=O)CCC2CCCCC2)C(=O)N(C)c2ccccc21 (centres undefined)	114 to 115
S=C(NN=Cc1cccc(-c2ccc(Cl)cc2Cl)n1)NN1CCCC1	155 to 156
Clc1ccc(-c2cc(Cl)nc(Cl)n2)cc1	130 to 132
N#CN1C(=O)c2ccccc2C1=O	189 to 191
CCCc1noc(-c2ccccc2)c1-c1ccc(S(N)(=O)=O)cc1	167
CCOC(=O)c1cc(-c2ccc3ccccc3c2)[nH]c1N	149 to 151
Cc1c(N)ccc(Cc2ccc(N)c(C)c2C)c1C	141 to 143
CCOC(=O)c1nc2ccc(OC)cc2nc1SCC	70
Cc1nnc2n1-c1sc(Cl)cc1C(c1ccccc1F)=NC2	187 to 189
COC(=O)c1cc(F)c(O)nc1Nc1ccc(F)cc1F	222 to 223
CCCC(=O)c1cnc2c(C)cccc2c1Nc1ccc(Cl)cc1Cl	169 to 170
